{
  "source": "ChEMBL document CHEMBL1201862",
  "about": "“PubChem BioAssay data set” (2004)",
  "key": {"[1]": {"target": "ATP-dependent translocase ABCB1 (Homo sapiens, UniProt P08183)", "sequence (P08183 whole entry)": "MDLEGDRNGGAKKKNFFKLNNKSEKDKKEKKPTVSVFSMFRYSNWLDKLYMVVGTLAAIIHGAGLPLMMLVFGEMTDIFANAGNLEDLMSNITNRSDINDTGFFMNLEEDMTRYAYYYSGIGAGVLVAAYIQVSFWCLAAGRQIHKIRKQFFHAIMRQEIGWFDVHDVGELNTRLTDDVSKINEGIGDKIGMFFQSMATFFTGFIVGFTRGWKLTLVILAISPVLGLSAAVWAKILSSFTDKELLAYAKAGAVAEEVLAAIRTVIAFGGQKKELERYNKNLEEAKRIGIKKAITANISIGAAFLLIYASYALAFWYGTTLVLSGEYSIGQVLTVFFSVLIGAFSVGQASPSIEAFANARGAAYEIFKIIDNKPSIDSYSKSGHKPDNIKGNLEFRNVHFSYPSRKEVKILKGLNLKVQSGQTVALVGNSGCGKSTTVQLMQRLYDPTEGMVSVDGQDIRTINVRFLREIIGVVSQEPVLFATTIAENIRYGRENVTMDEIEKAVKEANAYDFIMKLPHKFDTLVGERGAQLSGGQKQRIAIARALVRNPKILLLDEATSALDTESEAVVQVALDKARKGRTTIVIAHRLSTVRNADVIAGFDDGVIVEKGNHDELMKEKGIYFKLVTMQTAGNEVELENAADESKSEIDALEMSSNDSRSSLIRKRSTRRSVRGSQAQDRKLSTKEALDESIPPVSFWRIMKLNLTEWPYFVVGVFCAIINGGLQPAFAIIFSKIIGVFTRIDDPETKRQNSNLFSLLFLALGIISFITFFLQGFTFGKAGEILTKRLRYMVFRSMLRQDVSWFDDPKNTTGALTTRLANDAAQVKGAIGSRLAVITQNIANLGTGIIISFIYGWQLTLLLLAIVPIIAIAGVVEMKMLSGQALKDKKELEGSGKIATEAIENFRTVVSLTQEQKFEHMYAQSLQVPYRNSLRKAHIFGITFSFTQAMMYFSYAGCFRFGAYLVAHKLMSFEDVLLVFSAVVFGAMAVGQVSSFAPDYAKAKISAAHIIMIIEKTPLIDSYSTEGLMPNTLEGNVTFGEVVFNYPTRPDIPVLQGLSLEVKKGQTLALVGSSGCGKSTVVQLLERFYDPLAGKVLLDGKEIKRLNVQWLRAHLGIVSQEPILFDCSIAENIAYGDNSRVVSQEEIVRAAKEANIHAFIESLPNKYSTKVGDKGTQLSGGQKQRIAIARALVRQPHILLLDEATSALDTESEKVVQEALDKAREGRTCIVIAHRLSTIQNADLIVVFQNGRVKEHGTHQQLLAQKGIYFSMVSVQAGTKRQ", "test": "P-gp JC-1 efflux blockers potency – Jurkat-DNR cells, flow cytometry, follow-up, dose response (AID 489002)", "format": "functional"}, "[2]": {"test": "Late stage assay provider results from the probe development effort to identify inhibitors of the Plasmodium falciparum M18 Aspartyl Aminopeptidase (M18AAP): radiolabel-based cell-based dose response assay to identify compounds that inhibit P. falciparum growth in RBCs, Set 2..", "format": "functional"}, "[3]": {"target": "Kallikrein-7 (Homo sapiens, UniProt P49862)", "sequence (P49862 whole entry)": "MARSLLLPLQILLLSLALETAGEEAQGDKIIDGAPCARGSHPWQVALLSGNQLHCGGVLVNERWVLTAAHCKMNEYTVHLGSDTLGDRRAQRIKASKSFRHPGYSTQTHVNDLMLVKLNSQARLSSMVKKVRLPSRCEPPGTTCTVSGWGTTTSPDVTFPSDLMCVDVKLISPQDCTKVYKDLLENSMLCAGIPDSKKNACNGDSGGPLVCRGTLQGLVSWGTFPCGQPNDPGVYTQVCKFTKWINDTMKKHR", "test": "Fluorescence Intensity-based biochemical primary high throughput dose response assay to identify activators of kallikrein-7 (K7) zymogen."}, "[4]": {"target": "E3 ubiquitin-protein ligase Mdm2 (Homo sapiens, UniProt Q00987)", "sequence (Q00987 whole entry)": "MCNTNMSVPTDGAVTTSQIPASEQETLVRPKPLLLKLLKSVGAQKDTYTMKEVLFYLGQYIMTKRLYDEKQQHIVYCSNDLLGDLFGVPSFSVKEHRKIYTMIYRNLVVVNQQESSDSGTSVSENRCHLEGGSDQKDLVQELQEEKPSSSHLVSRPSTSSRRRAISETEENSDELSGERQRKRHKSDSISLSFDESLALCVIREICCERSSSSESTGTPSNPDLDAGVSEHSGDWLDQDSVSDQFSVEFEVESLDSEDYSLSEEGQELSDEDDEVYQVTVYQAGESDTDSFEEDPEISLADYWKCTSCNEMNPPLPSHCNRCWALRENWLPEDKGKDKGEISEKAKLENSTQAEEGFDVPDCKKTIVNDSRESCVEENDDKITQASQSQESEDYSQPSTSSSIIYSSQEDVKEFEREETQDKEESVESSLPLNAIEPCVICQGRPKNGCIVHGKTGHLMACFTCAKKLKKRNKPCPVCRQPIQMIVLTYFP", "test": "MDM2-luc reporter signal enhancers, multi-concentration potency testing, MDM2 ubiquitin-protein ligase inhibitor program, whole-cell format, luminescence detection, 384-well microplate (AID 1394);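 note: MDM2 E3 inhibitors raise luminescence so EC50 is for signal enhancement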", "format": "functional"}, "[5]": {"test": "viability of PTEN-deleted HCT116 cells – cell-based, HCT116 PTEN knockout, dose response (AID 1047);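 note: HCT116 colon tumor cells with PTEN knocked out; cells exposed to compound for 60 hours before readout; potency for loss of cell viability measured by luminescence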", "format": "functional"}, "[6]": {"test": "viability of HCT116 lacking mutant beta-catenin – cell-based, human colon tumor, dose response (AID 1045);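 note: HCT116 colon tumor cells with beta catenin knocked out; cells exposed to compound for 60 hours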", "format": "functional"}, "[7]": {"test": "Luminescence Cell-Based Dose Retest to Confirm Inhibitors of Cancer Stem Cells. [Related pubchem assays (depositor defined):AID2717, AID2721]", "format": "functional", "details": "Homo sapiens"}, "[8]": {"target": "T1, Microphthalmia-associated transcription factor (Homo sapiens, UniProt O75030)", "T1 sequence (O75030 whole entry)": "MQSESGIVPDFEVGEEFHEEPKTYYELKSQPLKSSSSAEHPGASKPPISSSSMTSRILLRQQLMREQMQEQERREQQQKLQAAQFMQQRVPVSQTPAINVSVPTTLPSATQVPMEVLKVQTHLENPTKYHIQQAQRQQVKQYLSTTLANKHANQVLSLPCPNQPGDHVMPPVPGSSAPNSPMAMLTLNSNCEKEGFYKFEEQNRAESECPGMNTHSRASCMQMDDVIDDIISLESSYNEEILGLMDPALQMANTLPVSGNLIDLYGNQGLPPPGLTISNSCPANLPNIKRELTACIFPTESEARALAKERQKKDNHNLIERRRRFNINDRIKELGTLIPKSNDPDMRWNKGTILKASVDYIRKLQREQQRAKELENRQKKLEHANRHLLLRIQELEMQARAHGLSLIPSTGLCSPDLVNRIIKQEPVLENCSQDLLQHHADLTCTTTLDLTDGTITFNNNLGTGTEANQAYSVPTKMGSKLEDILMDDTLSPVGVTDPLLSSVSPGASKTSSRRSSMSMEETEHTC", "test": "reducers of TRPM1 reporter luminescence, concentration series – cell-based, SK-MEL-5, cherry-picked, set 3, MITF inhibitor project, dose response (AID 493073);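 note: SK-MEL-5 melanoma cells with luciferase driven by the MITF target TRPM1 promoter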", "format": "functional"}, "[9]": {"test": "Fluorescence-based cell-based high throughput dose response assay for inhibitors of the interaction of nucleotide-binding oligomerization domain containing 2 (NOD2) and the receptor-interacting serine-threonine kinase 2 (RIPK2).", "format": "functional", "details": "Homo sapiens"}, "[10]": {"test": "reduced cellular PGC1a acetyl-lysine signal – cell-based, cherry-picked samples, dose response (AID 720514);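 note: potency may reflect raised or lowered acetylation signal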", "format": "functional"}, "[11]": {"test": "intracellular Trypanosoma cruzi inhibitors in host cells – cell-based, plate reader, cherry-pick samples, set 3, dose response (AID 651818);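 note: compounds incubated with infected cells for about four days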", "format": "functional"}, "[12]": {"target": "Endoplasmic reticulum aminopeptidase 2 (Homo sapiens, UniProt Q6P179)", "sequence (Q6P179 whole entry)": "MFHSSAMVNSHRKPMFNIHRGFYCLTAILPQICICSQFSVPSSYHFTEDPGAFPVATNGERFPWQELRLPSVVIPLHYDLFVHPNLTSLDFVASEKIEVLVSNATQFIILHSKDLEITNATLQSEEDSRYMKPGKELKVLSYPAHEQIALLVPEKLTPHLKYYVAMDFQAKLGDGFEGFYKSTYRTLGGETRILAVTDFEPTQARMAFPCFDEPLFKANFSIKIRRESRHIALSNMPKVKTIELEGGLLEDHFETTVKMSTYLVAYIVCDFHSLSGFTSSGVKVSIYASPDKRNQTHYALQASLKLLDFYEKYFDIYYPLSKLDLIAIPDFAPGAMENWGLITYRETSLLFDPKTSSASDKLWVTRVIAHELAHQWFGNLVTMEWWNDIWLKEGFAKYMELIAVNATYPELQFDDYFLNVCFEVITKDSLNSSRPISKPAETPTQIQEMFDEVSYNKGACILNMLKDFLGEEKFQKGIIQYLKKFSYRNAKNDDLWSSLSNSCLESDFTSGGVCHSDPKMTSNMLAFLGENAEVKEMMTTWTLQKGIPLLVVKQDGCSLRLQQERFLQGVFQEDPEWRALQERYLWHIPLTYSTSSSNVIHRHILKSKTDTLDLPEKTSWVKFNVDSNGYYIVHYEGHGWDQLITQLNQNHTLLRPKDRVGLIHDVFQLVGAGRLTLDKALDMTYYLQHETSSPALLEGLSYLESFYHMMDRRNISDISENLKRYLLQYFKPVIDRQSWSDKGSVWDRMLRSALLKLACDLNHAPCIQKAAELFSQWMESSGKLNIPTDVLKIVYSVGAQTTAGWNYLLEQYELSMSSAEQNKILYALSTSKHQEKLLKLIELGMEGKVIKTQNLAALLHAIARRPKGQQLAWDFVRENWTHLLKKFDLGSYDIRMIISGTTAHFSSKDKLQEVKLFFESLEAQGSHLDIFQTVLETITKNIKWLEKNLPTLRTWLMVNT", "test": "inhibition of ERAP2 arginine-AMC cleavage – biochemical, fluorescence plate reader, cherry-picked, set 2, selectivity assay for selective ERAP1 modulator project, dose response (AID 743320)"}, "[13]": {"test": "inhibition of mouse IRAP aminopeptidase activity – biochemical, Leu-AMC fluorescence, cherry-picked samples, set 2, selectivity assay for ERAP1 modulator project, dose response (AID 743340)"}, "[14]": {"target": "C-X-C chemokine receptor type 4 (Homo sapiens, UniProt P61073)", "sequence (P61073 whole entry)": "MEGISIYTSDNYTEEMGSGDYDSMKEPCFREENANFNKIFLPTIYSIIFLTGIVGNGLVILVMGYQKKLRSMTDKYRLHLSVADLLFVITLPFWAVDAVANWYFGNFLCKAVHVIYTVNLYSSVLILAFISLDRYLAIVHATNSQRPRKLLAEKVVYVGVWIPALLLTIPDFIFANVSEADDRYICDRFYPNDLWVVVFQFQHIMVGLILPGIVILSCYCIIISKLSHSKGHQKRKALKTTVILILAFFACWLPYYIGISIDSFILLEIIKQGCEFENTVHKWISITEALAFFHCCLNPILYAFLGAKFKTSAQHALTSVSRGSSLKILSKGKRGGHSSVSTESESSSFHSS", "test": "SAR analysis of small molecule antagonists of the CXCR6 receptor using a CXCR4 receptor luminescent beta-arrestin counterscreen.", "format": "functional"}, "[15]": {"target": "T2, C-C chemokine receptor type 6 (Homo sapiens, UniProt P51684)", "T2 sequence (P51684 whole entry)": "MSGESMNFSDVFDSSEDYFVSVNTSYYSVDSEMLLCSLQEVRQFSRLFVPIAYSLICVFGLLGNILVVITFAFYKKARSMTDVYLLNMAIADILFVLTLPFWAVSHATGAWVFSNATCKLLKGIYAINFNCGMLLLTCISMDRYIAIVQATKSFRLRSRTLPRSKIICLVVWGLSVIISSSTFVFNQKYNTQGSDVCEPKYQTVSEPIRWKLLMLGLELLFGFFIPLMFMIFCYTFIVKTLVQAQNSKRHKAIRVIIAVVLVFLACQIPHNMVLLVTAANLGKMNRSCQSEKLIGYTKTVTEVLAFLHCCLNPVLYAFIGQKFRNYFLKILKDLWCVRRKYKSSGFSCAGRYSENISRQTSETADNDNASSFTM", "test": "SAR analysis of small molecule antagonists of the CXCR6 receptor using a CCR6 receptor luminescent beta-arrestin counterscreen.", "format": "functional"}},
  "note": "Calls of active or inactive are those of the source.",
  "data": [
    {"smiles": "CN(CCN(C)c1cc(-c2ccco2)nc2cc(-c3ccccc3)nn12)C(=O)c1ccoc1", "values": [
      {"measurement": "EC50", "setting": "[1]", "result": 0.0001485, "unit": "µM"}
    ]},
    {"smiles": "Oc1ccc(CCN2CCc3ccccc3C2)cc1O", "values": [
      {"measurement": "IC50", "setting": "[2]", "result": "7.9 µM (active)"}
    ]},
    {"smiles": "CCNC(=O)/C(C#N)=C/c1c(N2CCN(c3ccccc3)CC2)nc2ccccn2c1=O", "values": [
      {"measurement": "EC50", "setting": "[3]", "result": "34.8 µM (inactive)"}
    ]},
    {"smiles": "O=C(Cn1ncc(Cl)c(Cl)c1=O)NCC1CCCCC1", "values": [
      {"measurement": "EC50", "setting": "[4]", "result": "1.89 µM (active)"},
      {"measurement": "EC50", "setting": "[5]", "result": "2.58 µM (active)"},
      {"measurement": "EC50", "setting": "[6]", "result": "1.44 µM (active)"},
      {"measurement": "AC50", "setting": "[7]", "result": "2.83 µM (active)"},
      {"measurement": "AC50", "setting": "[8]", "result": "7.39 µM (active)"},
      {"measurement": "IC50", "setting": "[9]", "result": "3.98 µM (active)"},
      {"measurement": "AC50", "setting": "[10]", "result": "3.97 µM (active)"}
    ]},
    {"smiles": "C[C@H](CO)N1C[C@H](C)[C@@H](CN(C)CC2CC2)Oc2c(NC(=O)Nc3ccc(C(F)(F)F)cc3)cccc2C1=O", "values": [
      {"measurement": "AC50", "setting": "[11]", "result": "1.87 µM (active)"},
      {"measurement": "AC50", "setting": "[12]", "result": "> 22 µM (inactive)"},
      {"measurement": "AC50", "setting": "[13]", "result": "16.9 µM (active)"}
    ]},
    {"smiles": "COc1cc(C(=O)NC2CC3CCCC(C2)N3CC(=O)Nc2ccc(C)cc2)cc(OC)c1OC", "note": "(stereo not given)", "values": [
      {"measurement": "IC50", "setting": "[14]", "result": "> 79 µM (inactive)"},
      {"measurement": "IC50", "setting": "[15]", "result": "> 79 µM (inactive)"}
    ]}
  ]
}
